Measurements published in ChEMBL document CHEMBL1201862, “PubChem BioAssay data set” (2004).
Several values for one entry are separate records, joined by “and”; a condition that tells them apart may be missing. Equal entries are not always repeated. Activity calls are given as the source filed them. For most assays here, no stated cut-off is given here; in the data, actives have a measured EC50 and inactives only a lower limit.

What was measured:
[1] = molecular target: T1, RNA-binding protein pos-1 (Caenorhabditis elegans, UniProt G5EF15); test: disruptors of C. elegans POS-1 RNA interaction – biochemical, fluorescence polarization, dose response (AID 1964);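 further: purified POS-1 fused to maltose binding protein made in E. coli; potency of compounds blocking POS-1 binding to fluorescent RNA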
T1 sequence (G5EF15 whole entry): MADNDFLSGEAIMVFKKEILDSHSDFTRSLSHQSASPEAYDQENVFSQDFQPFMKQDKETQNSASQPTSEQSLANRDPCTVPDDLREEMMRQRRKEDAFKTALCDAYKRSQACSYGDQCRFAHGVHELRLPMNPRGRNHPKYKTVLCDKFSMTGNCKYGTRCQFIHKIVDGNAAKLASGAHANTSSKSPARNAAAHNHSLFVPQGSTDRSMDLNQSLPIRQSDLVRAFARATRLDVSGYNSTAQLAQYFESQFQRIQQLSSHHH

[2] = molecular target: T2, Zinc finger protein mex-5 (Caenorhabditis elegans, UniProt Q9XUB2); test: potency of MEX-5 RNA-binding blockers – biochemical, C. elegans, fluorescence polarization, dose response (AID 1960)
T2 sequence (Q9XUB2 whole entry): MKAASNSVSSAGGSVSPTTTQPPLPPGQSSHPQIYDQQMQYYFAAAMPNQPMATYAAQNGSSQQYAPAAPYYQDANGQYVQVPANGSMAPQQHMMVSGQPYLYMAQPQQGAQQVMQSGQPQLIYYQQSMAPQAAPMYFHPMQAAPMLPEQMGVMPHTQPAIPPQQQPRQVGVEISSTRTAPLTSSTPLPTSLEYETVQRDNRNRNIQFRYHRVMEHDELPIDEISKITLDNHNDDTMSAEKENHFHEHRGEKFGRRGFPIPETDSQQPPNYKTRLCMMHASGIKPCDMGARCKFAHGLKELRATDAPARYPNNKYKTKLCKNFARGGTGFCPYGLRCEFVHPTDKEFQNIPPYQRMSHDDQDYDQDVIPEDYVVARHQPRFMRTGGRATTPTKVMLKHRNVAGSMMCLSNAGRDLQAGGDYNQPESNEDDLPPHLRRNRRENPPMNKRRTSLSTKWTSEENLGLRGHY

[3] = molecular target: Cytochrome P450 2D6 (Homo sapiens, UniProt P10635);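 further: CYP2D6 member of a cytochrome P450 panel assay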
[4] = fluconazole-exposed Candida albicans growth modulators – fluorescence, retest, confirmation (AID 2467); format: functional, cell-based
[5] = NIH-3T3 fibroblast cytotoxicity, dose response, cytotoxicity control, cell-based, fluorescence, Alamar Blue, secondary assay (AID 2327); format: functional;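 further: NIH-3T3 mouse fibroblasts cultured with fluconazole at 8 µg/mL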
[6] = test system: Streptococcus; test: GAS UMAA2166 growth inhibition – luminescence, BacTiterGlo, counter-screen for streptokinase expression inhibitor project, dose response (AID 1915); format: functional, organism-based;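 further: potency for reduction of bacterial viability or growth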
[7] = molecular target: T3, Streptokinase A (Streptococcus pyogenes serotype M1, UniProt P10520); test: viability-normalized secreted streptokinase activity reduction – plasminogen activation absorbance, OD405, dose response (AID 1914); format: functional, Streptococcus pyogenes M1 GAS;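 further: secreted streptokinase activity via plasminogen activation per viability signal from cell pellet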
T3 sequence (P10520 whole entry): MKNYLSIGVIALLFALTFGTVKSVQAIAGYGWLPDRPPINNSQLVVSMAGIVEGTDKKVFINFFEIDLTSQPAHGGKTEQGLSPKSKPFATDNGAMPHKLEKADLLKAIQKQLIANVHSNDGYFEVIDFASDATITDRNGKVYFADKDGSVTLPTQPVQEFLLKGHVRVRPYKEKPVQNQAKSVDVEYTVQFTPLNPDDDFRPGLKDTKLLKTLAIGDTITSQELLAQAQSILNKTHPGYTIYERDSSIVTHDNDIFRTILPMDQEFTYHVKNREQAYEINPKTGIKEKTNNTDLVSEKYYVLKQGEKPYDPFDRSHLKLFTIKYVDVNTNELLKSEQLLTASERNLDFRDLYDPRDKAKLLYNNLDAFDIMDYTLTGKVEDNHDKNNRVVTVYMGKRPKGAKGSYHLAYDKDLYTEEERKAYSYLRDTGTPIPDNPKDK

[8] = test system: INS1; test: INS-1E survival protection against cytokine death – cell-based, luminescence, retest, dose response (AID 449756); format: functional; details: Rattus norvegicus;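 further: cell death triggered by IL-1 beta plus TNF-alpha plus IFN-gamma mixture; protective hits raise ATP signal compared with cytokine alone wells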
[9] = test system: Streptococcus sp. 'group A'; test: Streptococcus pyogenes SK(-)GAS viability under kanamycin – luminescence, BacTiterGlo, confirmation, counter-screen for streptokinase expression inhibitor project, dose response (AID 1900); format: functional, organism-based
[10] = molecular target: Cytochrome P450 2C9 (Homo sapiens, UniProt P11712)
[11] = molecular target: T4, Heat shock factor protein 1 (Mus musculus, UniProt P38532); test: enhancement of HSF1-driven luciferase signal – cell-based, NIH3T3, luminescence, dose retest, confirmation (AID 435004); format: functional;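 further: stress induced by proteasome inhibitor MG132 added 30 min after compound; luciferase reporter driven by HSF1 response element in NIH3T3 cells; actives raise luminescence as potentiators of the MG132 stress response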
T4 sequence (P38532 whole entry): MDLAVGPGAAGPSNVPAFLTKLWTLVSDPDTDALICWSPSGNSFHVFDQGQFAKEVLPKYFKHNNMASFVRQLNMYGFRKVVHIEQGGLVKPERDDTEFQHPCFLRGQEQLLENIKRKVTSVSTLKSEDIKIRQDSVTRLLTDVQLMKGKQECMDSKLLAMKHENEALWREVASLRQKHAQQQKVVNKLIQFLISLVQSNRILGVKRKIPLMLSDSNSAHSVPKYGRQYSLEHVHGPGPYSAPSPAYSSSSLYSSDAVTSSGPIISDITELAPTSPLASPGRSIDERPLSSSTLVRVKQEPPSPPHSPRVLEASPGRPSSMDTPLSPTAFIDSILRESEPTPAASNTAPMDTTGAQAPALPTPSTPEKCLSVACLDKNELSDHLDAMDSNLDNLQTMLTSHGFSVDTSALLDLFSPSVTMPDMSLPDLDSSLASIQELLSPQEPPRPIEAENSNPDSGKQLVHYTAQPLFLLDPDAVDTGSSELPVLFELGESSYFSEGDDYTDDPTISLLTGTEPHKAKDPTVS

[12] = molecular target: Cytochrome P450 3A4 (Homo sapiens, UniProt P08684);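 further: CYP3A4 tested as one member of a cytochrome P450 panel screen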
Cytochrome P450 3A4, sequence (P08684 whole entry): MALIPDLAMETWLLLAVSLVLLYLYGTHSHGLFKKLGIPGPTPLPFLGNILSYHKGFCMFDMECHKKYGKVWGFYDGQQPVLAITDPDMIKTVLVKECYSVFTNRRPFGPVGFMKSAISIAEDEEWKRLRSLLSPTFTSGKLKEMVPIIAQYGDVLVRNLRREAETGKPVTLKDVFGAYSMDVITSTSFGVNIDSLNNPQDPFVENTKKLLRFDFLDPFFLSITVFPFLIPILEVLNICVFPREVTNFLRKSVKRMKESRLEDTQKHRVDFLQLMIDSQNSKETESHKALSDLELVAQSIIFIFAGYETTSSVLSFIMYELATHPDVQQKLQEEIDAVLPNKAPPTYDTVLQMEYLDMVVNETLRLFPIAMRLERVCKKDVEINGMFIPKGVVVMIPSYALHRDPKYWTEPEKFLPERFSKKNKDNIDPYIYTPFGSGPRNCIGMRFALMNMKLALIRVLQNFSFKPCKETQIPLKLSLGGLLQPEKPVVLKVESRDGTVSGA

Cytochrome P450 2D6, sequence (P10635 whole entry): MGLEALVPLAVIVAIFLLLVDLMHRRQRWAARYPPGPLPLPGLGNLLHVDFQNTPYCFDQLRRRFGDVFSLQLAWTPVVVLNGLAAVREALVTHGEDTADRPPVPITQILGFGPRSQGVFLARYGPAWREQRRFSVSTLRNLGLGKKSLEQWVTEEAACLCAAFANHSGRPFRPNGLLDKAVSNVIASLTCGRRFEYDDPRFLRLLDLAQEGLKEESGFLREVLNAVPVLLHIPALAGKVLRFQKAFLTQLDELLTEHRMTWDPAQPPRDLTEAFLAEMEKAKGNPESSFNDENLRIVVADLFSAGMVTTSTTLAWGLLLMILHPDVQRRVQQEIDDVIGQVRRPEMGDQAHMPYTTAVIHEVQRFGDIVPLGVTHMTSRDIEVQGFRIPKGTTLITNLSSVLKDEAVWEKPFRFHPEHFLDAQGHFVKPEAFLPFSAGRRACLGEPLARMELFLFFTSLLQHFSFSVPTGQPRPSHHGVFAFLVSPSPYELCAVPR
Cytochrome P450 2C9, sequence (P11712 whole entry): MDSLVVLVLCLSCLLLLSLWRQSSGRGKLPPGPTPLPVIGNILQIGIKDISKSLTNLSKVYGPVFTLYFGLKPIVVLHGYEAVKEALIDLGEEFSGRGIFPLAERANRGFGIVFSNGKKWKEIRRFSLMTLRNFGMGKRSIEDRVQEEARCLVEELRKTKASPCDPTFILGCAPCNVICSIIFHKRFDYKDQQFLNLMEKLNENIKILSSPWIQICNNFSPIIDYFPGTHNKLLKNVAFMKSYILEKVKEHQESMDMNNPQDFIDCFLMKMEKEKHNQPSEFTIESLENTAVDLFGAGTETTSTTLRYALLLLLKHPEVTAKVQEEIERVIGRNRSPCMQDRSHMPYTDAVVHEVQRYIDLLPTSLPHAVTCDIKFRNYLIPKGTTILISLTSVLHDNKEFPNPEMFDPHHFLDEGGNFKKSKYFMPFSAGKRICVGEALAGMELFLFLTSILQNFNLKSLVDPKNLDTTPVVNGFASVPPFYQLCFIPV

| Compound | EC50 [1] | EC50 [2] | AC50 [3] | other results |
| --- | --- | --- | --- | --- |
| Cc1cccc(NC2=NC(=O)CS2)c1 | > 300 µM (not active) | > 300 µM (not active) | – | – |
| CCS(=O)(=O)N1CCC(C(=O)NCCN2CCN(Cc3ccccc3)CC2)CC1 | – | – | 14.1 µM (inconclusive) | – |
| CCC1=NN(C(=O)c2ccccc2O)C(O)(c2ccccc2)C1 (stereo unspecified) | – | – | – | EC50 [4]: 0.788 µM (active); EC50 [5]: > 160 µM (inactive); EC50 [6]: 26.7 µM (active); EC50 [7]: > 150 µM (not active); AC50 [8]: 3.72 µM (active); EC50 [9]: 2.58 µM (active) |
| O=C(CCC(=O)c1cccs1)OCC(=O)N1CCN(C(=O)c2ccco2)CC1 | – | – | 39.8 µM (inconclusive) | AC50 [10]: 11.2 µM (inconclusive) |
| CC(=O)C(=NNc1nc2c([nH]1)c(=O)n(C)c(=O)n2C)C(C)=O | 73.9 µM (active) | 12.7 µM (active) | – | – |
| C[C@H](NCCc1ccc(O)cc1)[C@@H](O)c1ccc(O)cc1 | – | – | 15.8 µM (inconclusive) and 12.6 µM (inconclusive) | – |
| Cc1cccc(/N=N/c2c(C)[nH]n(C(N)=S)c2=O)c1C | – | – | – | EC50 [4]: 3.07 µM (active); EC50 [5]: > 150 µM (inactive) |
| COc1ccc(N/C=C2/C(=O)NC(=S)N(Cc3ccccc3)C2=O)c(OC)c1 | > 300 µM (inconclusive) | > 300 µM (inconclusive) | – | EC50 [11]: 2.74 µM (active) |
| Cc1cnc(CNc2ncnc3ccc(-c4ccoc4)cc23)cn1 | – | – | 39.8 µM (inconclusive) | – |
| COc1ccc(N(CC(=O)Nc2cccc(C)c2)S(=O)(=O)c2c(C)n[nH]c2C)cc1 | – | – | 20 µM (inconclusive) | – |
| CCN(C(=O)c1cc(Cl)ccc1OC)C1CCCCC1 | > 300 µM (not active) | > 300 µM (not active) | – | – |
| C=CCn1c(Cc2nc3ccccc3[nH]2)n[nH]c1=S | 80.2 µM (active) | 1.1 µM (active) | – | – |
| CCCCCCCSc1nc(N)cc(O)n1 | – | – | – | EC50 [4]: 4.49 µM (active); EC50 [5]: > 150 µM (inactive) |
| N#Cc1c(NC(=O)/C=C/C(=O)O)sc2c1CCN(Cc1ccccc1)C2 | 31 µM (active) | 25.5 µM (active) | – | – |
| CC(C)CNC(=O)C1Nc2ccc(C(F)(F)F)cc2C2C=CCC12 (stereo unspecified) | > 300 µM (not active) | > 300 µM (not active) | – | – |
| CS(=O)(=O)Nc1cccc(-c2nc(Nc3ccc(F)cc3)c3ccccc3n2)c1 | – | – | 39.8 µM (inconclusive) | – |
| C/N=C1\N[C@H](c2ccccc2)N(c2ccccc2)S1 | – | – | 25.1 µM (inconclusive) | – |
| CNc1nc(-c2ccccc2C)nc2ccccc12 | – | – | 31.6 µM (inconclusive) | AC50 [12]: 20 µM (inconclusive) |
| Cc1ccc(C)c(/C(=N\N=C(N)N)C2CC2)c1 | – | – | 3.98 µM (inconclusive) | – |
| COc1cc(C2C(C#N)=C(N)OC3=C2C(=O)CCC3)cc2c1OCO2 (stereo unspecified) | > 300 µM (not active) | > 300 µM (not active) | – | – |

| Compound | EC50 [1] | EC50 [2] | AC50 [3] | other results |
| --- | --- | --- | --- | --- |
| CC(C)=CCc1c2c(c(O)c3c(=O)c4c(oc13)-c1cc(O)c(O)cc1OC4C=C(C)C)C=CC(C)(C)O2 (stereo unspecified) [CYCLOHETERPHYLLIN] | – | – | – | EC50 [4]: > 38 µM (not active); EC50 [5]: 16.5 µM (inconclusive); EC50 [6]: 4.01 µM (active); EC50 [7]: > 150 µM (not active); EC50 [9]: 2.95 µM (active) |
| COc1cccc(CNc2ccc3nc(-c4ccc(N)cc4)c(OC)n3n2)c1 | – | – | 10 µM (inconclusive) | – |
| COC(=O)c1cc(C(=O)OC)cc(-n2c(C)cc(C(=O)COC(=O)CNS(=O)(=O)c3ccc(C)cc3)c2C)c1 | > 300 µM (not active) | > 300 µM (not active) | – | – |
| O=S(=O)(NCC(c1ccco1)N1CCN(c2ccc(F)cc2)CC1)c1ccc2c(c1)OCCO2 (stereo unspecified) | – | – | – | EC50 [4]: > 38 µM (not active); EC50 [5]: > 150 µM (inactive) |
| c1ccc(-c2ccc(N3CCCC4(CCNCC4)C3)cc2)cc1 | – | – | 20 µM (inconclusive) | – |
| COCCNC(=O)[C@H](C)[C@H]1C[C@]1(C)[C@H](NC(=O)OCc1ccccc1)c1ccccc1 | – | – | 20 µM (inconclusive) | AC50 [10]: 20 µM (inconclusive) |
| O=S(=O)(Nc1ccc(O)c2ccccc12)c1ccc(Br)cc1 | 36 µM (active) | 22.9 µM (active) | – | – |
| Cc1n[nH]c(C)c1CCNCc1ccc(OCC(O)CN2CCCCC2)cc1 (stereo unspecified) | – | – | – | EC50 [4]: > 38 µM (not active); EC50 [5]: > 150 µM (inconclusive) |
| CCNC(=O)O/N=C(\C)c1sc(-c2ccccc2)nc1C | – | – | 20 µM (inconclusive) | – |
| CC(C)c1ccccc1-n1c(SCC(=O)N2CCN(c3ccccc3)CC2)nnc1-c1cccnc1 | – | – | 15.8 µM (inconclusive) | – |
| Cc1ccc(C)c(NC(S)=NNC(=O)c2csc(C)c2)c1 | – | – | – | EC50 [4]: 0.947 µM (active); EC50 [5]: 67.2 µM (active) |
| O=C(NC(=S)Nn1cnc2c(cnn2-c2ccccc2)c1=O)c1ccc(Cl)cc1 | – | – | – | EC50 [4]: > 38 µM (not active); EC50 [5]: 143 µM (inconclusive) |
| Cc1cc(/C=C2\C(=O)NC(=O)N(c3cccc(F)c3)C2=O)c(C)n1-c1ccc(C(=O)O)c(Cl)c1 | > 300 µM (not active) | > 300 µM (not active) | – | – |
| O=C1CCCCC/C1=N/Nc1ccc(OCc2ccccc2)cc1 | – | – | – | EC50 [4]: > 38 µM (not active); EC50 [5]: > 150 µM (inactive) |
| FC(F)(F)COc1nc(OCC(F)(F)F)nc(N2CCN(c3ccccc3)CC2)n1 | – | – | – | EC50 [4]: > 38 µM (not active); EC50 [5]: > 160 µM (inactive) |
| O=C(O)c1cc(-c2ccc(O)cc2)on1 | – | – | – | EC50 [4]: > 38 µM (not active); EC50 [5]: > 160 µM (inactive) |
| O=C(O)c1ccc2c(c1)C1C=CCC1C(c1ccncc1)N2 (stereo unspecified) | 58.5 µM (active) | 24.3 µM (inconclusive) | – | – |
| COc1cccc(N/N=C2/C(=O)Nn3c2nc(C)cc3=O)c1 | > 300 µM (inconclusive) | < 0.06 µM (inconclusive) | – | – |
| CCOC(=O)C1Nc2ccc(C)cc2C2C=CCC12 (stereo unspecified) | > 300 µM (not active) | > 300 µM (not active) | – | – |
| C[As+](C)(c1ccc(Br)c([N+](=O)[O-])c1)c1ccc(Br)c([N+](=O)[O-])c1 | – | – | 1.58 µM (inconclusive) | – |
